# Laboratory results reported in US20100062994A1, “Adenosine Receptor Antagonists” (SANTARIS PHARMA A/S, priority 2006, published 2010).
# Biological target: T1, A3 human recombinant receptor (Homo sapiens, UniProt P0DMS8)
# T1 sequence (P0DMS8 1-318): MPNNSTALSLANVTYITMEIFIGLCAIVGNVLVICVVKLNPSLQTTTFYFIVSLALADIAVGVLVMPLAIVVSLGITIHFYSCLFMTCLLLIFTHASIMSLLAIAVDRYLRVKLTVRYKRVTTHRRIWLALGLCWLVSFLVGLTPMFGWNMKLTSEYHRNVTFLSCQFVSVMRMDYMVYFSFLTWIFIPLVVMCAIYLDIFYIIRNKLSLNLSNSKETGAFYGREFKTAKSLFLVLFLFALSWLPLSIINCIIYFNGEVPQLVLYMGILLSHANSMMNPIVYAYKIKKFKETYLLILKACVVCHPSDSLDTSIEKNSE
# Experiment: AequoScreen adenosine A3 receptor assay, antagonist mode (luminescence, against reference agonist IB-MECA)
# Assay type: cell-based
# Conditions: AequoScreen cells expressing A3 human recombinant receptor and Gα16; inhibition of IB-MECA at EC80; duplicate determinations at 8 concentrations
# Experimental: AequoScreen™ (Euroscreen, Belgium) cell lines expressing the A3 human recombinant receptor and the promiscuous G protein Gα16 were used throughout the study. AequoScreen™ cells were cultured following recommended conditions for at least one week prior to the test. The day before the test, cells were harvested with PBS-EDTA, washed and re-suspended in BSA-DMEM12 (Dulbecco's Modified Eagles Medium—Ham's F12 with 0.1% BSA). Suspended cells were then incubated at room temperature with coelenterazine h overnight. For agonist and antagonist testing, 50 μl of the cell suspension were injected onto 50 μl of the test compound or control in 96-well plates, and the resulting emission of light measured for the determination of cell activation. After the first reading, and following an incubation time of 15-30 min, 100 μl of the reference agonist (IB-MECA) at a concentration equal to the EC80 of the day of the experiment were injected onto the cell suspension containing the test compounds. The resulting emission of light was measured for the determination of antagonistic effects. Light emission for agonist and antagonist tests was recorded using a Hamamatsu FDSS-6000 reader. For agonist data, percentages of activation were calculated on the basis of the activation (luminescence data) induced by the reference agonist at a saturating concentration (EC100). For antagonist data, percentages of inhibition were calculated on the basis of the activation (luminescence data) induced by the reference agonist at a concentration equal to the EC80. The test compounds were tested as duplicate determinations at 8 concentrations of 100, 10, 1, 0.1 μM and 10, 1, 0.1, and 0.01 nM for agonist activity and 50, 5, 0.5, 0.05 μM and 5, 0.5, 0.05, and 0.005 nM for antagonist activity. Dose-response data, EC50/IC50, from test compound was analyzed with XLfit (IDBS) software.
# This assay may be used to determine the IC50 value for adenosine A3 antagonists according to the invention (see Example 42).
row,SMILES,IC50
1,"OCC12CNC(C(n3cnc4c(NCc5cccc(I)c5)ncnc43)O1)C2O (single isomer, unassigned) [SPN0234]",8.2 nM
2,"OCC12CNC(C(n3cnc4c(NCc5cccc(I)c5)ncnc43)O1)C2O (single isomer, unassigned) [SPN0240]",94 nM
3,"OC[C@@]12CO[C@@H]([C@H](n3cnc4c(NCc5cccc(I)c5)ncnc43)O1)[C@@H]2O [SPN0169, (1S,3R,4R,7S)-7-Hydroxy-1-hydroxymethyl-3-(N6-(3-iodobenzyl)-adenin-9-yl)-2,5-dioxabicyclo[2:2:1]heptane]",154 nM
4,"OC[C@@]12CO[C@@H]([C@H](n3cnc4c(NCc5cccc(I)c5)nc(Cl)nc43)O1)[C@@H]2O [SPN0174, (1S,3R,4R,7S)-7-Hydroxy-1-hydroxymethyl-3-(N6-(3-iodobenzyl)-2-chloro-adenin-9-yl)-2,5-dioxabicyclo[2:2:1]heptane]",209 nM
5,"CNC(=O)[C@]12CO[C@@H]([C@H](n3cnc4c(NCc5cccc(I)c5)nc(Cl)nc43)O1)[C@@H]2O [SPN0175, (1R,3R,4R,7S)-(7-hydroxy-3-(N6-(3-iodobenzyl)-2-chloro-adenin-9-yl)-2,5-dioxabicyclo[2:2:1]hept-1-yl)-N-methylcarboxamide]",391 nM
6,"CNC(=O)[C@@]12CO[C@@H]([C@H](n3cnc4c(NCc5cccc(Br)c5)ncnc43)O1)[C@@H]2O [SPN0186, (1R,3R,4R,7S)-(7-hydroxy-3-(N6-(3-bromobenzyl)-adenin-9-yl)-2,5-dioxabicyclo[2:2:1]hept-1-yl)-N-methylcarboxamide]",638 nM
7,"CNC(=O)[C@@]12CO[C@@H]([C@H](n3cnc4c(NCc5cccc(I)c5)ncnc43)O1)[C@@H]2N=[N+]=[N-] [SPN0192, (1S,3R,4R,7S)-(7-azido-3-(N6-(3-iodobenzyl)-adenin-9-yl)-2,5-dioxabicyclo[2:2:1]hept-1-yl)-N-methylcarboxamide]",816 nM
8,"CNC(=O)[C@@]12CO[C@@H]([C@H](n3cnc4c(NCc5cccc(I)c5)ncnc43)O1)[C@@H]2N [SPN0195, (1S,3R,4R,7S)-(7-amino-3-(N6-(3-iodobenzyl)-adenin-9-yl)-2,5-dioxabicyclo[2:2:1]hept-1-yl)-N-methylcarboxamide]",683 nM
9,"CNC(=O)[C@@]12CN[C@@H]([C@H](n3cnc4c(NCc5cccc(I)c5)ncnc43)O1)[C@@H]2O [SPN0235, (1R,3R,4R,7S)-(7-hydroxy-3-(N6-(3-iodobenzyl)-adenin-9-yl)-2-oxa-5-azabicyclo[2:2:1]hept-1-yl)-N-methylcarboxamide]",12 nM
10,"CNC(=O)[C@@]12CN[C@@H]([C@H](n3cnc4c(N)ncnc43)O1)[C@@H]2O [SPN0238, (1R,3R,4R,7S)-(7-hydroxy-3-(adenin-9-yl)-2-oxa-5-azabicyclo[2:2:1]hept-1-yl)-N-methylcarboxamide]",173 nM
